Measured values: US20130330422A1, “METHODS FOR INCREASING INSULIN SENSITIVITY AND TREATING DIABETES WITH A BIOACTIVE CHROMIUM BINDING PEPTIDE” (The Board of Trustees of the University of Alabama, priority 2012, published 2013)
Non-standard residues stand in square brackets, D forms with d. No end group written: not given here. pGlu = O=C1CC[C@@H](C(=O)O)N1

How the values were obtained:
[1] = Cr:peptide binding ratio after exposure to 10 equivalents of Cr^3+ and G-10 size exclusion chromatography; settings: 0.1 mol/L hepes pH 7.4, overnight at 4° C., G-10 separation
Excerpt: The intersection points in the isotherms allow the number of tightly binding ions to be estimated. For bovine apoLMWCr, the chromium:oligopeptide ratio at the intersection point is 3.6, which is very close to the average amount of chromium bound to isolated bovine LMWCr, which is 3.5. Titration of bovine LMWCr with Cr^3+ has previously shown that four Cr^3+ ions are required to restore bioactivity. For the synthetic peptides, the intersection points occurred at Cr:peptide ratios of approximately 2, 2, and 4 for EDGEECDCGE (SEQ ID NO: 41), DGEECDCGEE (SEQ ID NO: 42) and pEEEEGDD (SEQ ID NO: 1) (FIG. 6), respectively. This is consistent with the Crpeptides binding ratios found after exposing the peptides to solutions of 10 equivalents of Cr^3+ (CrCl3.6H2O in 0.1 mol/L hepes buffer, pH 7.4 overnight at 4° C.) and separating the peptides from the excess Cr^3+ by G-10 size exclusion chromatography (EDGEECDCGE (SEQ ID NO: 41): 2.0(±0.3), and DGEECDCGEE (SEQ ID NO: 42): 2.0±0.3). A change in mode from specific coordinate covalent binding to just electrostatic absorption on the peptide surface is proposed. Thus, the inflection point of the isotherm for the peptide pEEEEGDD (SEQ ID NO: 1) implies that it tightly binds four Cr^3+ ions. […] The two visible features are readily assigned to d→d transitions from the Cr^3+ centers. […]

[2] = Chromium binding studies: ultrafiltration equilibrium dialysis with 51CrCl3, Langmuir isotherms and Hill plots; settings: for Langmuir parameter Bt / Langmuir parameter K: Cr^3+ binding, 0.1 mol/L Hepes pH 7.4, 4° C.; for Co-operativity / Kf (Hill plot binding of formation constant) / n (Hill constant): chromium(III) binding, Hill plot; for chromium:oligopeptide ratio at the intersection point of the Langmuir isotherm (number of tightly binding ions): estimated from Langmuir isotherm
Procedure: A variation of the equilibrium dialysis method using an ultrafiltration device was utilized to examine the binding of chromium to the synthetic peptides. Aliquots of a mixture of CrCl3 and ^51CrCl3 were combined to generate different concentrations of Cr(III) while maintaining the synthetic peptide in solution at a constant volume. Known amounts (approximately 0.46 μmol) of peptide and 200 mL of 0.1 mol/L Hepes buffer (pH 7.4) were slowly stirred in an Amicon 8400 ultrafiltration unit (with a YC05 membrane) at 4° C. temperature for at least 12 h to achieve equilibration. The ultrafiltration unit was then pressurized, and effluent was collected. The content of free chromic ion in the effluent was determined by gamma counting using a Packard Cobra II auto-gamma counter. Chromium binding experiments were performed in triplicate, and the synthetic peptide used in at least one of the three sets of triplicates was from a different synthesis. As a control for the chromium-binding experiments, the ultrafiltration procedure was performed without peptide to establish the amount of chromium that adhered to the ultrafiltration unit; all experiments were corrected for this background. Linear regression analyses of the Langmuir isotherms and Hill plots were performed using SigmaPlot 11.0. The Cr concentration of solutions of isolated peptides were determined by graphite furnace atomic absorption spectroscopy using a PerkinElmer Analyst 400 atomic absorption spectrometer equipped with an HGA-900 graphite furnace and an AS-800 autosampler using a chromium hollow cathode lamp operating at 10 mA; a spectral bandwidth of 0.8 nm was selected to isolate the light at 353.7 nm. Chromium standard solution obtained from Perkin Elmer (Waltham, Mass.) was utilized to generate a standard curve.
Errors are presented throughout as standard deviations of the triplicate analyses. Doubly deionized H2O was used throughout. Amino acid analyses of samples were performed by the Protein and Separation Analysis Laboratory at Purdue University. Protein concentrations were determined by the fluorescamine method (Davis et al. “Isolation and characterization of a biologically active form of chromium oligopeptide from bovine liver,” Arch Biochem Biophys. 1997; 339:335-343.) Fluorescence measurements were obtained on a Jobin Yvon FluoroMax-3 fluorescence spectrophotometer. Ultraviolet-visible spectra were obtained using a Hewlett-Packard 8451A or a Beckman Coulter DU 800 spectrophotometer.
As chromium binding to the oligopeptide LMWCr is believed to be through only carboxylate residues and the heptapeptide pEEEEGDD (SEQ ID NO: 1) retains all the aspartate and glutamate residues in LMWCr, whether the heptapeptide can bind chromium in a similar fashion to LMWCr was investigated. The binding of chromium to bovine apoLMWCr prepared by the low pH EDTA method (Davis and Vincent), the heptapeptide pEEEEGDD (SEQ ID NO: 1), and two other acidic peptides was probed. […] The number of Cr^3+ ions binding to the peptides was estimated using Langmuir isotherms. For the Langmuir isotherms of Cr^3+ binding to all the synthetic peptides, Cr binding to apoLMWCr can be represented by two intersecting straight lines with different slopes (FIG. 5)). […] Negative values of the Langmuir parameters Bt and K were found for each peptide: apoLMWCr, −2.69 mmol/g and −109 L/mmol, respectively; EDGEECDCGE (SEQ ID NO: 41), −6.97 mmol/g and −354 L/mmol; DGEECDCGEE (SEQ ID NO: 42), −62.9 mmol/g and −9.94 L/mmol; and pEEEEGDD (SEQ ID NO: 1), −0.73 mmol/g and −151 L/mmol.
To further compare the binding properties between the synthetic peptides and apoLMWCr in CrCl3 solution, the method of Hill was applied to establish the degree of cooperativity between the covalent binding sites with the initial low amounts of substrate in solution, assuming covalent binding sites are occupied before surface adsorption occurs. The total number of tight binding sites established using the Langmuir isotherm was utilized. […]

[3] = tested on: cultured myotubes; assay: Insulin-stimulated 2-[3H]-deoxyglucose uptake in cultured myotubes; format: cell-based; settings: peptide 10 mM and/or chromium 1 h, insulin 50 nM 10 min; 10 mM or 25 mM glucose overnight
Procedure: Myotubes were incubated with the peptide (10 mM) and/or chromium for 1 h and stimulated with insulin (50 nM) for 10 min, and 2-[^3H]-deoxyglucose uptake was assessed. Data represent mean counts per minute (cpm)/mg protein/30 min±SE (n=3). *p<0.01 compared to basal low glucose conditions. **p<0.01 compared to insulin-stimulated low glucose conditions. ***p<0.001 compared to high glucose conditions.

[4] = tested on: Akt; assay: Insulin-stimulated phosphorylation of Akt in cultured myotubes (Western blot); format: cell-based; settings: peptide and/or chromium (1 μM) 1 h, insulin 5 nm
Procedure: Myotubes were incubated with the peptide and/or chromium (1 μM) for 1 h and stimulated with insulin 5 nm. (A) Representative Western blots of p^308-Akt and Akt, and (B) Densitometric quantitation of the Western blots. Data represent mean±SE (n=3), *p<0.001 versus control **p<0.01 compared to insulin-stimulated glucose uptake (panel A). *p<0.001 versus control ^#p<0.05 compared to insulin-stimulated glucose uptake in untreated cells (panel B).

[5] = Insulin-stimulated glucose uptake in vivo, tail-vein peptide then intraperitoneal glucose; settings: peptide 5 μmol/kg alone or premixed with equimolar chromium via tail-vein; glucose 2 g/kg intraperitoneally
Procedure: The peptide (5 μmol/kg) either alone or premixed with equimolar concentrations of chromium were injected via tail-vein, immediately following which glucose (2 g/kg body weight) was administered intraperitoneally (*p<0.05, n=6-8).

Substance | Cr:peptide binding ratio [1] | Langmuir parameter Bt [2] [mmol/g] | Langmuir parameter K [2] [L/mmol] | Co-operativity [2] | Kf (Hill plot binding of formation constant) [2] | n (Hill constant) [2] | chromium:oligopeptide ratio at the intersection point of the Langmuir isotherm (number of tightly binding ions) [2] | insulin-stimulated glucose uptake in cultured myotubes [3] | insulin-stimulated phosphorylation of Akt (p308-Akt) [4] | insulin-stimulated glucose uptake in vivo [5]
DGEECDCGEE [synthetic acidic peptide with the same amino acid composition as bovine LMWCr] | 2.0±0.3 | -62.9 | -9.94 | Positively co-operative | 1.01 × 10^11 (mol/L)^−2 | 1.85 | approximately 2 |  |  | 
EDGEECDCGE [synthetic acidic peptide with the same amino acid composition as bovine LMWCr] | 2.0(±0.3) | -6.97 | -354 | Positively co-operative | 1.48 × 10^23 (mol/L)^−2 | 3.64 | approximately 2 |  |  | 
EEEEGDD |  |  |  |  |  |  |  | augments insulin-stimulated glucose uptake | improves insulin-stimulated phosphorylation of Akt | augments insulin-stimulated glucose uptake in vivo
[pGlu]EEEGDD |  | -0.73 | -151 | Positively co-operative | 1.92 × 10^20 (mol/L)^−4 | 3.82 | ~4 |  |  | 
